Data reported in patent US20230233430A1, “POLYOL ESTERS FROM BIOBASED FEEDSTOCKS FOR USE AS EMOLLIENT IN PERSONAL CARE APPLICATIONS” (priority 2020, published 2023).

Experiment: Decomposition temperature by thermogravimetric analyser (TGA)
Format: physicochemical
Settings: reactants
Description: The decomposition temperature of the reactants and polyol ester of different grades (PE25, PE50 and PE100) were determined using a thermogravimetric analyser (TGA). TGA is a method of thermal analysis by measuring the changes in the mass of a sample over increasing temperatures.

Row | Amount of sample decomposed within the temperature range [wt. %] | Decomposition temperature [°C] | Structure (SMILES)
1 | 95.24 | 247.9 to 283.9 | O=C(O)CCCCCCCCC(=O)O [Sebacic acid]
2 | – | 150.9 to 193.3 | CCCCCCCC(=O)O [Caprylic acid]
3 | – | 178.7 to 220.9 | OCC(O)CO [Glycerin]
